Measurements reported in ChEMBL document CHEMBL1201862, “PubChem BioAssay data set” (2004).
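Where inhibition never reached the appropriate level, the endpoint shown equals the highest concentration tested. Otherwise, values were interpolated linearly from a five-concentration, 48-hour dose response in 96-well plates. GI50 is the concentration that inhibits growth by half.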 Calls of active or inactive are those of the source. Cut-off read from the data, not from the text of the source: active = GI50 up to about 1.1 µM and inactive = higher.

Experiments:
Experiment in all cases: NCI-60 cell line screen, 48 h
A549 = test system: A549
ACHN = test system: ACHN
COLO 205 = test system: COLO 205
EKVX = test system: EKVX
HCT-15 = test system: HCT-15
HL-60 = test system: HL-60
MOLT-4 = test system: MOLT-4
Malme-3M = test system: Malme-3M
NCI-H226 = test system: NCI-H226
NCI-H23 = test system: NCI-H23
NCI-H460 = test system: NCI-H460
NCI/ADR-RES = test system: NCI/ADR-RES
OVCAR-3 = test system: OVCAR-3
OVCAR-5 = test system: OVCAR-5
SF-268 = test system: SF-268
SF-295 = test system: SF-295
SF-539 = test system: SF-539
SK-MEL-2 = test system: SK-MEL-2
SK-MEL-5 = test system: SK-MEL-5
SW-620 = test system: SW-620

Structure (SMILES)	GI50 (A549)	GI50 (ACHN)	GI50 (COLO 205)	GI50 (EKVX)	GI50 (HCT-15)	GI50 (HL-60)	GI50 (MOLT-4)	GI50 (Malme-3M)	GI50 (NCI-H226)	GI50 (NCI-H23)	GI50 (NCI-H460)	GI50 (NCI/ADR-RES)	GI50 (OVCAR-3)	GI50 (OVCAR-5)	GI50 (SF-268)	GI50 (SF-295)	GI50 (SF-539)	GI50 (SK-MEL-2)	GI50 (SK-MEL-5)	GI50 (SW-620)
CCc1nc2ccc(C(F)(F)F)cc2[nH]c1=O	> 100 µM (inactive)	> 100 µM (inactive)	> 100 µM (inactive)	44.5 µM (inactive)	> 100 µM	> 100 µM (inactive)	> 100 µM (inactive)	> 100 µM (inactive)	> 100 µM (inactive)	> 100 µM (inactive)	> 100 µM (inactive)	> 100 µM (inactive)	> 100 µM (inactive)	> 100 µM (inactive)	> 100 µM (inactive)	> 100 µM (inactive)	> 100 µM (inactive)	> 100 µM (inactive)	> 100 µM (inactive)	> 100 µM (inactive)
Cc1ccc2c(c1)-c1c(C#N)c(N)nc(-c3ccc(Cl)cc3)c1CCS2(=O)=O	5.31 µM (inactive)	8.77 µM (inactive)	4.55 µM (inactive)	20.8 µM (inactive)	4.6 µM	0.207 µM (active)	4.99 µM (inactive)	5.07 µM (inactive)	28.6 µM (inactive)	7.23 µM (inactive)	3.85 µM (inactive)	4.48 µM (inactive)	3.94 µM (inactive)	49.9 µM (inactive)	20.1 µM (inactive)	4.21 µM (inactive)	3.77 µM (inactive)	8.67 µM (inactive)	4.32 µM (inactive)	5.81 µM (inactive)
CC12OOC(c3ccccc31)c1c2ccc2ccccc12 (stereo not given)	3.73 µM (inactive)	1.73 µM (inactive)	1.71 µM (inactive)	5.45 µM (inactive)	2.17 µM	0.334 µM (active)	1.6 µM (inactive)	2.3 µM (inactive)	18.7 µM (inactive)	11.4 µM (inactive)	2.26 µM (inactive)	10 µM (inactive)	2.26 µM (inactive)	19.5 µM (inactive)	11.2 µM (inactive)	7.11 µM (inactive)	8.15 µM (inactive)	12.1 µM (inactive)	8.53 µM (inactive)	1.95 µM (inactive)
COC(=O)[C@@H]1[C@H]2CC[C@]3(C)[C@@H](OC(C)=O)CC[C@H]3[C@@H]2CC[C@H]1C1(C)SCCS1	25.1 µM (inactive)	37.2 µM (inactive)	13.5 µM (inactive)	25.1 µM (inactive)	32 µM	18.2 µM (inactive)	24.8 µM (inactive)	18.9 µM (inactive)	23.9 µM (inactive)	37.2 µM (inactive)	29.3 µM (inactive)	20.4 µM (inactive)	33.1 µM (inactive)	22.8 µM (inactive)	44.4 µM (inactive)	24.8 µM (inactive)	37 µM (inactive)	19 µM (inactive)	8.77 µM (inactive)	31.9 µM (inactive)
O=C(N[C@H]1CCC[C@H]1C(=O)Nc1ccc(C(F)(F)F)cc1)OCc1ccccc1	> 100 µM (inactive)	> 100 µM (inactive)	> 100 µM (inactive)	> 100 µM (inactive)	> 100 µM	> 100 µM (inactive)	> 100 µM (inactive)	> 100 µM (inactive)	65.3 µM (inactive)	> 100 µM (inactive)	> 100 µM (inactive)	> 100 µM (inactive)	> 100 µM (inactive)	> 100 µM (inactive)	> 100 µM (inactive)	> 100 µM (inactive)	> 100 µM (inactive)	> 100 µM (inactive)	> 100 µM (inactive)	> 100 µM (inactive)
COCCNC1CCC(=O)c2[nH]c3ccccc3c21 (stereo not given)	> 100 µM (inactive)	> 100 µM (inactive)	> 100 µM (inactive)	27.1 µM (inactive)	> 100 µM	> 100 µM (inactive)	> 100 µM (inactive)	> 100 µM (inactive)	> 100 µM (inactive)	> 100 µM (inactive)	> 100 µM (inactive)	> 100 µM (inactive)	40.2 µM (inactive)	> 100 µM (inactive)	> 100 µM (inactive)	> 100 µM (inactive)	> 100 µM (inactive)	> 100 µM (inactive)	> 100 µM (inactive)	> 100 µM (inactive)
O=c1cc(-c2ccccc2)[nH]c2cc(F)c(F)cc12	0.463 µM (active)	0.676 µM (active)	0.661 µM (active)	11.5 µM (inactive)	0.472 µM	0.23 µM (active)	0.438 µM (active)	> 69.5 µM (inactive)	1.55 µM (inactive)	0.653 µM (active)	0.565 µM (active)	0.425 µM (active)	0.34 µM (active)	1.89 µM (inactive)	1.45 µM (inactive)	1.21 µM (inactive)	0.342 µM (active)	3.01 µM (inactive)	0.197 µM (active)	0.355 µM (active)
CSc1nc2ccccc2c(=O)n1/N=C1\C(=O)N(CN2CCOCC2)c2ccc(Cl)cc21	35.4 µM (inactive)	26.1 µM (inactive)	17.1 µM (inactive)	2.6 µM (inactive)	22.9 µM	8.61 µM (inactive)	10.9 µM (inactive)	> 100 µM (inactive)	53.3 µM (inactive)	21.8 µM (inactive)	15.2 µM (inactive)	> 100 µM (inactive)	54.5 µM (inactive)	26 µM (inactive)	36.9 µM (inactive)	46.1 µM (inactive)	26.7 µM (inactive)	20.6 µM (inactive)	38.7 µM (inactive)	17.6 µM (inactive)
CCOC(=O)C(N)CSC(=O)NC (stereo not given)	327 µM (inactive)	184 µM (inactive)	78.5 µM (inactive)	269 µM (inactive)	63 µM	74 µM (inactive)	55.1 µM (inactive)	117 µM (inactive)	247 µM (inactive)	112 µM (inactive)	92 µM (inactive)	89.9 µM (inactive)	96.6 µM (inactive)	350 µM (inactive)	115 µM (inactive)	258 µM (inactive)	> 83.6 µM (inactive)	63.2 µM (inactive)	116 µM (inactive)	80.4 µM (inactive)
C(/Cc1ccc2c(c1)OCO2)=N\N=C1NCCCCN1	> 100 µM (inactive)	> 100 µM (inactive)	> 100 µM (inactive)	50 µM (inactive)	> 100 µM	> 100 µM (inactive)	48.4 µM (inactive)	> 100 µM (inactive)	49.2 µM (inactive)	> 100 µM (inactive)	45.8 µM (inactive)	> 100 µM (inactive)	> 100 µM (inactive)	34.7 µM (inactive)	> 100 µM (inactive)	51.5 µM (inactive)	> 100 µM (inactive)	> 100 µM (inactive)	25.4 µM (inactive)	> 100 µM (inactive)
CN(C)/N=N/c1nc2c(c(=O)n(C)c(=O)n2C)n1CC1CO1 (stereo not given)	20 µM (inactive)	10.8 µM (inactive)	14.3 µM (inactive)	22.4 µM (inactive)	14.2 µM	4 µM (inactive)	12.3 µM (inactive)	9.18 µM (inactive)	8.51 µM (inactive)	12.2 µM (inactive)	10.1 µM (inactive)	16.6 µM (inactive)	15.8 µM (inactive)	32 µM (inactive)	11.6 µM (inactive)	17 µM (inactive)	7.1 µM (inactive)	10.7 µM (inactive)	12.9 µM (inactive)	15 µM (inactive)
COC(=O)C1CC2(C)C=CC1N(C(=O)OCc1ccccc1)C2 (stereo not given)	88.5 µM (inactive)	> 100 µM (inactive)	> 100 µM (inactive)	38.2 µM (inactive)	94 µM	24.2 µM (inactive)	31.6 µM (inactive)	> 100 µM (inactive)	> 100 µM (inactive)	59.3 µM (inactive)	> 100 µM (inactive)	41.3 µM (inactive)	55.8 µM (inactive)	> 100 µM (inactive)	> 100 µM (inactive)	42.4 µM (inactive)	> 100 µM (inactive)	> 100 µM (inactive)	34.8 µM (inactive)	> 100 µM (inactive)
CC1=C(C(=O)OC(C)C)C(c2ccccc2C(F)(F)F)C(C(=O)OC(CO[N+](=O)[O-])CO[N+](=O)[O-])=C(C)N1 (stereo not given)	3.92 µM (inactive)	4.79 µM (inactive)	10.2 µM (inactive)	13.3 µM (inactive)	7.96 µM	95.5 µM (inactive)	2.17 µM (inactive)	12.2 µM (inactive)	13.7 µM (inactive)	12.7 µM (inactive)	5.19 µM (inactive)	4.39 µM (inactive)	9.31 µM (inactive)	19.3 µM (inactive)	8.63 µM (inactive)	4.21 µM (inactive)	9.48 µM (inactive)	14.1 µM (inactive)	5.52 µM (inactive)	5.79 µM (inactive)
O=C(O)c1cc2ccccc2c(/N=N/c2ccc(S(=O)(=O)Nc3nccs3)cc2)c1O	> 100 µM (inactive)	> 100 µM (inactive)	> 100 µM (inactive)	> 100 µM (inactive)	> 100 µM	> 100 µM (inactive)	> 100 µM (inactive)	> 100 µM (inactive)	> 100 µM (inactive)	> 100 µM (inactive)	> 100 µM (inactive)	> 100 µM (inactive)	> 100 µM (inactive)	> 100 µM (inactive)	> 100 µM (inactive)	> 100 µM (inactive)	> 100 µM (inactive)	> 100 µM (inactive)	> 100 µM (inactive)	> 100 µM (inactive)
